How the values were obtained:
[1] = tested on: pigweed; test: Test C pre-/postemergence herbicide test; assay type: in vivo, Amaranthus retroflexus; details: Preemergence; for Plant response rating, Pigweed: 125 g ai/ha; for Plant response rating (scale of 0 to 100), Pigweed: 250 g ai/ha
In short: (§1)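 Compound solutions contained surfactant in a non-phytotoxic solvent. These were sprayed onto pots of loam/sand sown with seeds, and onto young plants (2 to 18 cm, 1- to 4-leaf) in sphagnum peat–vermiculite mix. Visual injury scores (0 none, 100 complete control) were recorded after 13 to 15 days.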

[2] = tested on: sedge, umbrella; test: Test B flooded paddy test; assay type: in vivo, Cyperus difformis; details: 1000 g ai/ha, Flood; scale of 0 to 100 where 0 is no effect and 100 is complete control
In short: (§2)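 Plants were grown to the 2-leaf stage, then pots were flooded to 3 cm above the soil and compound was applied directly into the paddy water, with that depth held throughout. After 13 to 15 days in a greenhouse, injury was rated visually against untreated controls on a 0 to 100 scale (100 = complete control).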

[3] = tested on: oilseed rape; test: Test C pre-/postemergence herbicide test; assay type: in vivo, Brassica napus; details: Preemergence; for Plant response rating, Oilseed Rape: 125 g ai/ha; for Plant response rating (scale of 0 to 100), Oilseed Rape: 250 g ai/ha
In short: as §1

[4] = tested on: johnsongrass; test: Test C pre-/postemergence herbicide test; assay type: in vivo, Sorghum halepense; details: Preemergence; for Plant response rating, Johnsongrass: 125 g ai/ha; for Plant response rating (scale of 0 to 100), Johnsongrass: 250 g ai/ha
In short: as §1

[5] = tested on: rice; test: Test B flooded paddy test; assay type: in vivo, Oryza sativa; details: 1000 g ai/ha, Flood; scale of 0 to 100 where 0 is no effect and 100 is complete control
In short: as §2

[6] = tested on: blackgrass; test: Test C pre-/postemergence herbicide test; assay type: in vivo, Alopecurus myosuroides; details: Preemergence; for Plant response rating, Blackgrass: 125 g ai/ha; for Plant response rating (scale of 0 to 100), Blackgrass: 250 g ai/ha
In short: as §1

[7] = tested on: wheat; test: Test A pre-/postemergence herbicide test; assay type: in vivo, Triticum aestivum
In short: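 Formulated compound (non-phytotoxic solvent, surfactant) sprayed pre- onto soil of seeded loam/sand pots or post- onto seedlings at 1–2 leaves; ~10 d greenhouse; 0–100 visual control rating versus untreated.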

[8] = tested on: barnyardgrass; test: Test B flooded paddy test; assay type: in vivo, Echinochloa crus-galli; details: 1000 g ai/ha, Flood; scale of 0 to 100 where 0 is no effect and 100 is complete control
In short: as §2

[9] = tested on: crabgrass, large; test: Test C pre-/postemergence herbicide test; assay type: in vivo, Digitaria sanguinalis; details: Preemergence; for Plant response rating, Crabgrass, Large: 125 g ai/ha; for Plant response rating (scale of 0 to 100), Crabgrass, Large: 250 g ai/ha
In short: as §1

[10] = tested on: velvetleaf; test: Test C pre-/postemergence herbicide test; assay type: in vivo, Abutilon theophrasti; details: Preemergence; for Plant response rating, Velvetleaf: 125 g ai/ha; for Plant response rating (scale of 0 to 100), Velvetleaf: 250 g ai/ha
In short: as §1

[11] = tested on: ragweed; test: Test C pre-/postemergence herbicide test; assay type: in vivo, Ambrosia elatior; details: Preemergence; for Plant response rating, Ragweed: 125 g ai/ha; for Plant response rating (scale of 0 to 100), Ragweed: 250 g ai/ha
In short: as §1

[12] = tested on: wheat (winter wheat); test: Test C pre-/postemergence herbicide test; assay type: in vivo, Triticum aestivum; details: Preemergence; for Plant response rating (scale of 0 to 100), Wheat: 250 g ai/ha
In short: as §1

[13] = 31 g ai/ha, scale 0 to 100, 0 is no effect and 100 is complete control
[14] = 62 g ai/ha, scale 0 to 100 (0 no effect, 100 complete control)
[15] = scale 0 to 100 (0 no effect, 100 complete control)
[16] = Postemergence, 125 g ai/ha, 0 to 100 scale, 0 is no effect, 100 is complete control
[17] = Postemergence, 500 g ai/ha, 0 to 100 scale (0 no effect, 100 complete control)
[18] = Preemergence, 125 g ai/ha, 0 to 100 scale where 0 is no effect and 100 is complete control
[19] = preemergence, 500 g ai/ha, 0 to 100 scale, 0 is no effect and 100 is complete control

Row | SMILES | Pigweed plant response rating [1, 13] | Pigweed plant response rating [1, 14] | Plant response rating, Pigweed [1, 15] | Plant response rating (scale of 0 to 100), Pigweed [1] | Plant response rating, Sedge, Umbrella [2] | Oilseed Rape plant response rating [3, 13] | Oilseed Rape plant response rating [3, 14] | Plant response rating, Oilseed Rape [3, 15] | Plant response rating (scale of 0 to 100), Oilseed Rape [3] | Johnsongrass plant response rating [4, 13] | Johnsongrass plant response rating [4, 14] | Plant response rating, Johnsongrass [4, 15] | Plant response rating (scale of 0 to 100), Johnsongrass [4] | Plant response rating, Rice [5] | Blackgrass plant response rating [6, 13] | Blackgrass plant response rating [6, 14] | Plant response rating, Blackgrass [6, 15] | Plant response rating (scale of 0 to 100), Blackgrass [6] | Plant response rating, Wheat [7, 17] | Plant response rating, Wheat [7, 18] | further results
1 | O=C1NCC(c2ccc(C(F)(F)F)c(F)c2)C1C(=O)Nc1cccc(F)c1F (racemic) [Compound 247] | 0 | 55 | 85 | 90 | 0 | 5 | 30 | 30 | 80 | 0 | 0 | 10 | 5 | 0 | 0 | 50 | 60 | 70 | 30 | 0 | Plant response rating, Wheat [7, 16]: 0; Plant response rating, Wheat [7, 19]: 0; Plant response rating, Barnyardgrass [8]: 85; Crabgrass, Large plant response rating [9, 13]: 95; Crabgrass, Large plant response rating [9, 14]: 95; Plant response rating, Crabgrass, Large [9, 15]: 98; Plant response rating (scale of 0 to 100), Crabgrass, Large [9]: 100; Velvetleaf plant response rating [10, 13]: 0; Velvetleaf plant response rating [10, 14]: 20; Plant response rating, Velvetleaf [10, 15]: 30; Plant response rating (scale of 0 to 100), Velvetleaf [10]: 25; Ragweed plant response rating [11, 13]: 100; Ragweed plant response rating [11, 14]: 85; Plant response rating, Ragweed [11, 15]: 70; Plant response rating (scale of 0 to 100), Ragweed [11]: 98; Wheat plant response rating [12, 13]: 0; Wheat plant response rating [12, 14]: 0; Plant response rating (scale of 0 to 100), Wheat [12]: 0
2 | O=C1NCC(c2ccc(C(F)(F)F)nc2)C1C(=O)Nc1ccccc1F (racemic) [Compound 262] | 0 | 0 | 0 | 5 | 0 | 0 | 35 | 35 | 70 | 0 | 0 | 0 | 0 | 0 | 0 | 0 | 0 | 0 | 0 | 0 | Plant response rating, Wheat [7, 16]: 0; Plant response rating, Wheat [7, 19]: 0; Plant response rating, Barnyardgrass [8]: 20; Crabgrass, Large plant response rating [9, 13]: 95; Crabgrass, Large plant response rating [9, 14]: 98; Plant response rating, Crabgrass, Large [9, 15]: 100; Plant response rating (scale of 0 to 100), Crabgrass, Large [9]: 100; Velvetleaf plant response rating [10, 13]: 0; Velvetleaf plant response rating [10, 14]: 0; Plant response rating, Velvetleaf [10, 15]: 0; Plant response rating (scale of 0 to 100), Velvetleaf [10]: 0; Ragweed plant response rating [11, 13]: 0; Ragweed plant response rating [11, 14]: 20; Plant response rating, Ragweed [11, 15]: 10; Plant response rating (scale of 0 to 100), Ragweed [11]: 75; Wheat plant response rating [12, 13]: 0; Wheat plant response rating [12, 14]: 0; Plant response rating (scale of 0 to 100), Wheat [12]: 0
3 | O=C1NCC(c2ccc(C(F)(F)F)nc2)C1C(=O)Nc1cccc(F)c1F (racemic) [Compound 263] | 70 | 70 | 98 | 95 | 0 | 40 | 60 | 60 | 90 | 5 | 0 | 0 | 0 | 0 | 0 | 0 | 40 | 70 | 60 | 0 | Plant response rating, Wheat [7, 19]: 60; Plant response rating, Barnyardgrass [8]: 0; Crabgrass, Large plant response rating [9, 13]: 100; Crabgrass, Large plant response rating [9, 14]: 100; Plant response rating, Crabgrass, Large [9, 15]: 100; Plant response rating (scale of 0 to 100), Crabgrass, Large [9]: 100; Velvetleaf plant response rating [10, 13]: 5; Velvetleaf plant response rating [10, 14]: 5; Plant response rating, Velvetleaf [10, 15]: 20; Plant response rating (scale of 0 to 100), Velvetleaf [10]: 5; Ragweed plant response rating [11, 13]: 0; Ragweed plant response rating [11, 14]: 90; Plant response rating, Ragweed [11, 15]: 80; Plant response rating (scale of 0 to 100), Ragweed [11]: 100; Wheat plant response rating [12, 13]: 0; Wheat plant response rating [12, 14]: 10; Plant response rating (scale of 0 to 100), Wheat [12]: 50

Reference: patent publication US10294202B2, “Pyrrolidinones as herbicides” (FMC Corporation, priority 2013, dated 2019)
